The record followed here is patent publication US20220193013A1, “Pharmaceutical Composition for Treatment or Prevention of Multiple Inflammatory Disorders” (priority 2020, published 2022).

The structures appear in SMILES notation.

The subject of experiment [1] is acute lung injury plus hyperthermia, CD-1 mice. The experiment in a line: mouse acute lung injury plus hyperthermia model. Type of experiment: in vivo. The method, then:
This example provides results of a study to evaluate the effect of denatonium acetate in a mouse acute lung injury plus hyperthermia model. The procedure was three groups of CD-1 mice given (1) saline by gavage for oral administration BID, (2) DA administered oral at a dose of 92.4 mg/kg BID and (3) was DA iv at 3 mg/kg iv bolus QD. Lung lavage fluid was measured and cytokine analysis. Statistics was one-way ANOVA followed by Tukey's multiple comparison post hoc test for data with normal distribution; Kruskal-Wallis test followed by Dunn's multiple comparison post hoc test for data with skewed distribution; and the ROUT method for identifying outliers. Control or drug administered for 3 days, then LPS at 50 μL of 1 mg/ml delivered intratracheally with a Penn Century needle where a core temperature of 39 C at 24 hours post LPS and then sacrifice to measure lung lavage fluid protein concentration and serum cytokine levels.

Experiment [2] relates to DIO mice (C57BL/6NTac, high fat diet). The experiment in a line: body weight study in diet-induced obese (DIO) mice, 56 days. The class given is in vivo, mouse. The method, then:
This example provides results of a study of DA plus another compound (CQL) on body weight in diet-induced (DIO) mice. Adult C57BL/6NTac mice were fed with a high fat diet (60%). Vehicle group (N=15) were treated with distilled water by gavage BID, CQL (N=15) were treated at 50 mg/kg by gavage BID, and DA (N=15) at a dose of 92.4 mg/kg by gavage BID. The study period was for 56 days+2-3 days testing period afterward. […] Metabolic biomarkers were measured on days 28 and 56. Cytokine analysis on Days 28 and 56. Serum levels of GLP-1, GLP-2, and CCK at 1 h after dosing on Days 1 and 56, and at 2 h after dosing on Day 7 (dosing (>6 h fasting prior to dosing until after blood collection); and serum level of PPY on Day 56.

Setting [3] is: DA 92.4 mg/kg gavage BID, compared to vehicle.
Setting [4] is: DA 92.4 mg/kg, CQL 50 mg/kg, gavage BID.

As for `CC(=O)[O-].CC[N+](CC)(CC(=O)Nc1c(C)cccc1C)Cc1ccccc1` [DA, denatonium acetate], the “protein concentration in lung lavage fluid” value in experiment [1] (iv 3 mg/kg bolus QD) is on record as “drastic but not significantly reduced”. Besides, in experiment [1] (oral 92.4 mg/kg BID), the “protein concentration in lung lavage fluid” value was “drastic but not significantly reduced”. Moreover, in experiment [2] (DA 92.4 mg/kg gavage BID), the serum glucose levels result is “did not show a significant effect”. Also, in experiment [2] (setting [3]), the “daily food intake at Day 14” value is given as “significantly reduced”; the “serum CCK levels at Day 56” value is on record as “significantly increased”; the “serum GLP-1 levels at Days 7 and 56” value was “significantly increased”; the “serum GLP-2 levels at Day 56” value is on record as “significantly increased”. For the same compound, in experiment [2] (setting [3]), the “serum PYY levels at Day 56” value was “significantly increased” and the “serum insulin level at Day 28” value is recorded as “significantly reduced”. For the same compound, the “body weight gain at day 57” value in experiment [2] (DA 92.4 mg/kg gavage BID, compared to vehicle and CQL) is “significantly reduced”. Moreover, the “serum LDL levels at days 28 and 56” value in experiment [2] (DA 92.4 mg/kg gavage BID, compared to vehicle, no significant difference) is given as “noticeable decrease”. Moreover, in experiment [2] (setting [4]), the “serum HbA1c level at Day 28” value is listed as “significantly reduced” and the “serum HbA1c level at Day 56” value was “considerably increased”. In addition, the “daily water intake at Day 28” value in experiment [2] (DA 92.4 mg/kg, CQL 50 mg/kg, gavage BID, compared to vehicle) was “significantly increased”. Also, in experiment [2] (day 28), the “serum Eotaxin, significance (p) of increase” value was determined as 0.031; the “serum G-CSR, significance (p) of increase” value worked out at 0.063; the “serum IL-6, significance (p) of increase” value was 0.041; the “serum IP-10, significance (p) of increase” value came out at 0.013. For the same compound, in experiment [2] (day 28), the “serum MIG, significance (p) of increase” value is listed as “no sig”. Moreover, in experiment [2] (day 56), the “serum Eotaxin, significance (p) of increase” value is reported as “no sig”; the “serum G-CSR, significance (p) of increase” value is listed as 0.039; the “serum IL-6, significance (p) of increase” value is “no sig”; the “serum IP-10, significance (p) of increase” value is listed as “no sig”. The “serum MIG, significance (p) of increase” value in experiment [2] (day 56) was determined as 0.028.
